Source: patent US20100168112A1, “2-Substituted and 4-substituted aryl nitrone compounds” (RENOVIS, INC., priority 2004, published 2010)

What was measured:
[1] = Microsomal stability in human liver microsomes; type: in vitro ADME; details: NADPH, 37° C.
Procedure: Frozen Sprague-Dawley rat liver microsomes (RLM) were thawed on ice and gently mixed before use. The final reaction mixture consisted of a nitrone compound of this invention (at ˜500 ng/ml), 1 mM NADPH, and 0.5 mg/ml of RLM protein in 0.1 M PBS (pH7.4), with organic solvent concentration not exceeding 1% (v/v). Per set of incubations, a positive control compound was included. The mixture was first pre-incubated 3 to 5 minutes at 37° C. without NADPH, and the reaction was then initialized by the addition of NADPH and incubated at 37° C. for up to 30 minutes. An aliquot of the reaction mixture was sampled at the initiation of the reaction and at designated time after reaction started. The drawn samples were quenched with acetonitrile, diluted with mobile phase to ensure the detection of test article in the linear range, and analyzed by LC/MS/MS. Half-life or percentage of remaining nitrone compound was calculated using standard methods. A similar method, or a slight variation of it, was used to test the stability of nitrones in human liver microsomes (HLM).

[2] = DPPH free radical-scavenging/antioxidant assay; type: biochemical; details: 50 μM DPPH in 80% methanol; 24 h time point; read-out: EC50 (concentration at which a compound reduces by 50% the peak absorbance of DPPH at 520 nm)
Procedure: Nitrone compounds of the present invention were tested for their free-radical scavenging/antioxidant activity in an in vitro assay that is accepted by those skilled in the art as a model for conditions involving the generation of free radicals. The assay is based on a reaction between a free-radical donor, 2,2-diphenyl-1-picrylhydrazyl (DPPH), and a radical scavenger/antioxidant to be tested for free-radical scavenging activity. Upon donation of the free-radical electron to the purported radical scavenger, the peak visible absorbance of DPPH (515-520 nm) decreases so that optical density readings at this part of the visual spectrum reflect the progression of the following reaction:
where AH is a hypothetical radical scavenger/antioxidant. The assay is based on a protocol originally detailed in Brand-Williams, W. et al., 1995, Use of a Free Radical Method to Evaluate Antioxidant Activity, Lebensm. Wiss. Technol., 28:25-30, with further modifications described in L. R. Fukumoto and G. Mazza, 2000, Assessing Antioxidant and Prooxidant Activities of Phenolic Compounds, J. Agric. Food Chem., 48:3597-3604.
The antioxidant assay was performed using Perkin-Elmer 96-well, clear-bottom, black-wall plates (ordered from E & K Scientific Products) and a Tecan Safire absorbance plate reader. The positive controls were Trolox (6-hydroxy-2,5,7,8-tetramethylchromane-2-carboxylic acid, Sigma-Aldrich), BHA (2(3)-tert-butylhydroquinone monomethyl ether, Sigma-Aldrich), PBN (C-(phenyl)-N-(tert-butyl)nitrone, Sigma-Aldrich) and S-PBN (C-(2-sulfophenyl)-N-(tert-butyl)nitrone, sodium salt, prepared according to E. G. Janzen and R. V. Shetty, 1979, Tetrahedron Lett., 35: 3229-32), and the negative control (i.e., vehicle) was DMSO. In brief, 2 μL of 100× DMSO stock of the desired final concentration of each control or nitrone compound to be tested in the same batch was added to a separate well. To each well was then added 198 μL of a freshly made 50 μM DPPH (Sigma-Aldrich) solution in 80% methanol using a multi-channel pipette. The absorbance was immediately read on the plate reader at 520 nm and thereafter read periodically to assess kinetics until all reactions reached completion (i.e., steady state). Since the steady-state point was 24 h, the assay results are shown from the 24 h time point. The absorbance at 520 nm (OD) was plotted versus the concentrations of the controls and nitrone compounds to assess dose-response and interpolate the EC50 values of the controls and test compounds.

[3] = Pharmacokinetic evaluation following intravenous and oral administration in rats; type: in vivo; details: male, Sprague-Dawley; for Cmax / Tmax / bioavailability: 5 mg/kg; for Cmax: rat plasma; for Cmax / Tmax: oral gavage, 2 mg/mL at 2.5 mL/kg; for clearance / Vd / Tmax / bioavailability / half-life: plasma, rat; for clearance / Vd / half-life: 1 mg/kg; for clearance / Vd: intravenous administration, 1 mg/mL at 1.0 mL/kg; for clearance: read-out: CI (clearance) (converted); for Vd: read-out: Vd (volume of distribution); for bioavailability: po 2 mg/mL at 2.5 mL/kg vs iv 1 mg/mL at 1.0 mL/kg, dose-normalized, read-out: F (%) oral bioavailability; for half-life: intravenous, read-out: T1/2 elimination half life (converted)
Procedure: Male Sprague-Dawley rats were given at least 24 hours acclimation before experiment initiation. During acclimation period, all animals received food and water ad libitum. However, food (not water) was removed from the animal's cages up to 12 hours before initiation of the experiment. During the first 4 hours of experimentation, the animals received only water ad libitum. Two to three animals for iv and three animals for oral administration were tested. For iv formulation nitrone compounds of this invention were dissolved (1 mg/mL) in a mixture of 5% dimethyl acetamide (v/v), 0 to 4% Tween 80 (v/v), 10 to 40% PEG 400 (v/v) and the rest percentage of water (v/v). For oral formulation nitrone compounds of this invention were dissolved (2 mg/mL) in a mixture of 4% of 10% Tween in water and 96% of 0.5% carboxymethyl cellulose (medium viscosity) in water; or 4% of 10% Tween in water, 48% of 0.5% carboxymethyl cellulose (medium viscosity) in water, and 48% of 0.5% Hydroxypropyl Methylcellulose/0.2% Sodium Lauryl Sulfate in water. These formulations were stored at 5° C. until the experiment. Formulations were then stir-mixed at least half an hour before dosing. Exactly 200 μL of each left-over formulation was diluted with CH3CN/H2O for concentration analysis. The animals were weighed before dosing. The body weight was used to calculate the true dose for each animal:
IV dosing: • Dose volume (mL)=1.0 mL/kg The intravenous dose was administered through the jugular vein catheter or tail vein in less than 1 minute.
PO dosing: • Dose volume (mL)=2.5 mL/kg The oral dose was administered by oral gavage.
For IV dosing, blood samples were collected (using a pre-heparinized syringe) via the carotid artery or jugular vein catheter at t=2, 5, 15, 30, 60, 120, 180, 360, and 480 minutes post dosing. For PO dosing, blood samples were collected (using a pre-heparinized syringe) via the carotid artery or jugular vein catheter before dosing and at t=5, 15, 30, 60, 120, 180, 360, and 480 minutes post dosing. For some nitrone compounds a 1440 minutes (24 hours) sample was also taken for both IV and PO administrations. About 250 μL of blood was obtained at each time point from the animals. Equal volumes of 0.9% normal saline were replaced to prevent dehydration. The whole blood samples were maintained on ice until centrifugation. Blood samples were then centrifuged at 14,000 rpm for 10 minutes at 4° C. and the upper plasma layer transferred into a clean vial and stored at −80° C. The resulting plasma samples were then analyzed by mass spectroscopy using standard methods.
All the samples from above assays were analyzed on a PE-Sciex API 3000 triple quadrupole with a Turbo Ion Spray source. Nitrone compounds of this invention were separated from the matrix via a linear gradient reverse-phase chromatography using a C18 column, such as Thermo BDS Hypersil C18 (100×4.6 mm, 5 micron particle, 120A pore size). The mobile Phases were:
Nitrone compounds were detected by the mass spectrometer in the positive ion multiple reaction monitoring mode (MRM). For quantitative analysis, a standard curve was prepared by spiking a stock solution of the nitrone compound to the appropriate matrix to achieve a quantitation curve range and analyzed the standards in the same manner as the samples.
Pharmacokinetic parameters of the aryl nitrone compounds were determined by a noncompartmental analysis using WinNonlin-Pro (Version 4.1, Pharsight Corporation). Average and standard deviation of the parameters were calculated using standard formulas in Microsoft Excel.

| Compound | % of Nitrone Remaining at 30 min (Human) [1] | EC50 [2] | Cmax [3] | clearance [3] | Vd [3] | Tmax [3] | bioavailability [3] | half-life [3] |
| --- | --- | --- | --- | --- | --- | --- | --- | --- |
| CNS(=O)(=O)c1ccccc1/C=[N+](\[O-])C(C)(C)C [Compound 47, N-tert-Butyl-C-(2-methylsulfamoyl-phenyl)nitrone] | 100% | > 1000 µM |  |  |  |  |  |  |
| CC(C)(C)NS(=O)(=O)c1ccccc1/C=[N+](\[O-])C(C)(C)C [Compound 48, N-tert-Butyl-C-(2-tert-butylsulfamoyl-phenyl)nitrone] | 100% | > 1000 µM | 862 ng/mL | 32.8 mL/min/kg | 1.39 L/kg | 15 min | 55.3% | 29.4 min |
| CC(C)(C)/[N+]([O-])=C/c1ccccc1S(=O)(=O)NCc1ccccc1 [Compound 49, N-tert-Butyl-C-(2-benzylsulfamoyl-phenyl)nitrone] | 0% | > 1000 µM |  |  |  |  |  |  |
| CCN(CC)S(=O)(=O)c1ccc(/C=[N+](\[O-])C(C)(C)C)cc1 [Compound 50, N-tert-Butyl-C-(4-diethylsulfamoylphenyl)nitrone] | 86% | > 1000 µM |  |  |  |  |  |  |
| CCN(CC)S(=O)(=O)c1ccc(/C=[N+](\[O-])C(C)C)cc1 [Compound 51, N-Isopropyl-C-(4-diethylsulfamoylphenyl)nitrone] | 94% | > 1000 µM |  |  |  |  |  |  |
| CCN(CC)S(=O)(=O)c1ccc(/C=[N+](\[O-])C2CCCCC2)cc1 [Compound 52, N-Cyclohexyl-C-(4-diethylsulfamoylphenyl)nitrone] | 64% |  |  |  |  |  |  |  |
| CCN(CC)S(=O)(=O)c1ccc(/C=[N+](\[O-])Cc2ccccc2)cc1 [Compound 53, N-Benzyl-C-(4-diethylsulfamoylphenyl)nitrone] | 65% |  |  |  |  |  |  |  |
| CN(c1ccccc1)S(=O)(=O)c1ccc(/C=[N+](\[O-])C(C)(C)C)cc1 [Compound 54, N-tert-Butyl-C44-(methyl-phenyl-sulfamoyl)phenylInitrone] | 62% | > 1000 µM | 180 ng/mL | 35.8 mL/min/kg | 3.21 L/kg | 15 min | 13.2% | 61.8 min |
| CC(C)/[N+]([O-])=C/c1ccc(S(=O)(=O)N(C)c2ccccc2)cc1 [Compound 55, N-Isopropyl-C-[4-(methyl-phenyl-sulfamoyl)phenyl]nitrone] | 82% |  |  |  |  |  |  |  |
| CN(c1ccccc1)S(=O)(=O)c1ccc(/C=[N+](\[O-])C2CCCCC2)cc1 [Compound 56, N-Cyclohexyl-C-[4-(methyl-phenyl-sulfamoyl)phenyl]nitrone] | 33% | > 1000 µM |  |  |  |  |  |  |
| CN(c1ccccc1)S(=O)(=O)c1ccc(/C=[N+](\[O-])Cc2ccccc2)cc1 [Compound 57, N-Benzyl-C-[4-(methyl-phenyl-sulfamoyl)phenyl]nitrone] | 14% | > 1000 µM |  |  |  |  |  |  |
| CC(C)(C)NS(=O)(=O)c1ccc(/C=[N+](\[O-])C(C)(C)C)cc1 [Compound 58, N-tert-Butyl-C[4-(tert-butylsulfamoyl)phenyl]nitrone] | 100% | > 1000 µM |  |  |  |  |  |  |
| CC(C)/[N+]([O-])=C/c1ccc(S(=O)(=O)NC(C)(C)C)cc1 [Compound 59, N-Isopropyl-C-[4-(tert-butylsulfamoyl)phenyl]nitrone] | 100% | > 1000 µM |  |  |  |  |  |  |
| CC(C)(C)NS(=O)(=O)c1ccc(/C=[N+](\[O-])C2CCCCC2)cc1 [Compound 60, N-Cyclohexyl-C-[4-(tert-butylsulfamoyl)phenyl]nitrone] | 100% | > 1000 µM | 1.59 ng/mL | 63.3 mL/min/kg | 2.84 L/kg | 8.4 min | 0.4% | 30.6 min |
| CC(C)(C)NS(=O)(=O)c1ccc(/C=[N+](\[O-])Cc2ccccc2)cc1 [Compound 61, N-Benzyl-C-[4-(tert-butylsulfamoyl)phenyl]nitrone] | 95% | > 1000 µM |  |  |  |  |  |  |
| CC(C)(C)/[N+]([O-])=C/c1ccc(S(C)(=O)=O)nc1 [Compound 80, N-tert-Butyl-C-(6-methanesulfonyl-pyridine-3-yl)nitrone] | 94.5% |  | 3940 ng/mL | 3.5 mL/min/kg | 0.52 L/kg | 30 min | 54.7% | 103 min |
| CS(=O)(=O)c1ccc(/C=[N+](\[O-])Cc2ccccc2)cn1 [Compound 81, N-Benzyl-C-(6-methanesulfonyl-pyridine-3-yl)nitrone] | 90.5% |  |  |  |  |  |  |  |
